From ChEMBL document CHEMBL1201862, “PubChem BioAssay data set” (2004) come the findings set out here.

Some test systems named below: SNB-19; MOLT-4; UO-31; Malme-3M; HOP-62; UACC-257; NCI-H460; PC-3; MDA-MB-435; IGROV-1; A549; TK-10; OVCAR-8; A498; HT-29; NCI-H226; SF-539; U-251; SN12C; HCT-15.
What all share (assay): growth of human tumour cells (NCI), 48 h

Molecules are shown by their SMILES.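 Protocol summary: plate cells (96-well), add compound at 5 concentrations, incubate 48 h, interpolate endpoints linearly. GI50 marks 50% less growth.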 Active and inactive are the calls of the source. No stated cut-off is given here; in the data, active = GI50 up to about 1.1 µM and inactive = higher.

As for `Cc1cc(S(=O)(=O)Nc2nnc3c(C(F)(F)F)cc(Cl)cn23)c(S)cc1Cl`, the GI50 was 38.2 µM (inactive) with SNB-19; 74 µM (inactive) in the assay with MOLT-4; 33 µM (inactive) with UO-31; > 100 µM (inactive) with Malme-3M; > 100 µM (inactive) with HOP-62; > 100 µM (inactive) in the assay with UACC-257. Further, the GI50 was 45.3 µM (inactive) in the assay with NCI-H460; > 100 µM (inactive) in the assay on PC-3; 76 µM (inactive) with MDA-MB-435; > 100 µM (inactive) with IGROV-1; > 100 µM (inactive) with A549; > 100 µM (inactive) with TK-10. Also, the GI50 is > 100 µM (inactive) in the assay with OVCAR-8; > 100 µM (inactive) in the assay with A498; > 100 µM (inactive) with HT-29; > 100 µM (inactive) in the assay with NCI-H226; > 100 µM (inactive) with SF-539; 46.6 µM (inactive) with U-251. The GI50 with SN12C was > 100 µM (inactive); in the assay with HCT-15, over 100 µM.
On to `COc1ccc2c(c1)c1ccc3c(c1n2C)C(=O)C=CC3=O`, for which the GI50 is 26 µM (inactive) in the assay on SNB-19; 0.834 µM (active) in the assay on MOLT-4; 11.4 µM (inactive) in the assay on UO-31; 7.76 µM (inactive) in the assay on Malme-3M; 35.5 µM (inactive) in the assay with HOP-62; 10.9 µM (inactive) with UACC-257. The GI50 in the assay with NCI-H460 is 26.9 µM (inactive); in the assay on PC-3, 12.8 µM (inactive); in the assay with MDA-MB-435, 7.96 µM (inactive); with IGROV-1 it was 12.7 µM (inactive); in the assay on A549, 29 µM (inactive); in the assay with TK-10, 7.76 µM (inactive). Further, the GI50 with OVCAR-8 was 11.4 µM (inactive); with A498, 25.4 µM (inactive); in the assay with HT-29, 14 µM (inactive); in the assay on NCI-H226, 14.3 µM (inactive); in the assay with SF-539, 13 µM (inactive); with U-251 it was 12.5 µM (inactive). In addition, the figures for the GI50 in the assay with SN12C and in the assay on HCT-15 were 8.38 µM (inactive) and 4.72 µM, respectively.
`CN(C)/C=N/Cc1ccc2c(c1)OCO2`: the GI50 in the assay with SNB-19, in the assay on MOLT-4, with UO-31, in the assay with Malme-3M, with HOP-62 and in the assay on UACC-257 was > 100 µM (inactive) throughout. Also, the GI50 with NCI-H460, in the assay on PC-3, in the assay on MDA-MB-435, with IGROV-1, in the assay on A549 and in the assay with TK-10 was > 100 µM (inactive) throughout. The GI50 in the assay on OVCAR-8, in the assay with A498, with HT-29, in the assay on NCI-H226, in the assay with SF-539 and in the assay with U-251 was > 100 µM (inactive) in each case. The values for the GI50 with SN12C and in the assay with HCT-15 were > 100 µM (inactive) and over 100 µM, respectively.
For `NC(=S)N1N=C(c2ccccc2O)CC1c1ccccc1` (centres undefined), the GI50 in the assay on SNB-19 was 23.3 µM (inactive); in the assay with MOLT-4, 8.04 µM (inactive); with UO-31, 19.3 µM (inactive); with Malme-3M, 16.1 µM (inactive); in the assay with HOP-62, 4.95 µM (inactive); in the assay with UACC-257 it was 15.3 µM (inactive). For the same molecule, the GI50 in the assay on NCI-H460 was 14 µM (inactive); in the assay on PC-3, 5.24 µM (inactive); in the assay on MDA-MB-435, 3.02 µM (inactive); in the assay with IGROV-1, 11.4 µM (inactive); with A549, 16 µM (inactive); in the assay on TK-10, 20.1 µM (inactive). For the same molecule, the GI50 was 25.5 µM (inactive) with OVCAR-8; 11.9 µM (inactive) with A498; 11 µM (inactive) in the assay with HT-29; 15 µM (inactive) in the assay with NCI-H226; 11.8 µM (inactive) in the assay on SF-539; 16.8 µM (inactive) with U-251. The GI50 in the assay with SN12C is 13.8 µM (inactive); with HCT-15 it was 5.62 µM.
As for `N=C(N)N/N=C/c1c(-c2cccc([N+](=O)[O-])c2)nc2n1CCS2`, the GI50 with SNB-19 was 13.8 µM (inactive); with MOLT-4, 11.4 µM (inactive); with UO-31, 15.5 µM (inactive); with Malme-3M, 18.9 µM (inactive); in the assay with HOP-62, 22.4 µM (inactive); with UACC-257, 19.1 µM (inactive). Besides, the GI50 was 22.8 µM (inactive) in the assay with NCI-H460; 16.9 µM (inactive) in the assay on PC-3; 28.2 µM (inactive) in the assay with MDA-MB-435; 15.6 µM (inactive) in the assay on IGROV-1; 18.5 µM (inactive) in the assay with A549; 23.4 µM (inactive) in the assay with TK-10. The GI50 in the assay on OVCAR-8 was 16.7 µM (inactive); in the assay on A498 it was 17 µM (inactive); with HT-29, 15.7 µM (inactive); with NCI-H226 it was 20.3 µM (inactive); in the assay on SF-539, 20 µM (inactive); with U-251 it was 14.9 µM (inactive). In addition, the GI50 in the assay with SN12C was 22.7 µM (inactive); with HCT-15, 33.1 µM.
As for `Cc1oncc1/N=C1\C=C(O)C(=O)c2ccccc21`, the GI50 with SNB-19 was 16.3 µM (inactive); in the assay on MOLT-4 it was 2.5 µM (inactive); with UO-31, 14.1 µM (inactive); in the assay with Malme-3M, 3.45 µM (inactive); with HOP-62 it was 17.4 µM (inactive); in the assay with UACC-257, 2.77 µM (inactive). Also, the GI50 with NCI-H460 is 3.91 µM (inactive); with PC-3, 2.42 µM (inactive); in the assay on MDA-MB-435, 1.92 µM (inactive); in the assay on IGROV-1, 3.57 µM (inactive); in the assay with A549 it was 3.9 µM (inactive); in the assay on TK-10, 25.1 µM (inactive). Besides, the GI50 in the assay with OVCAR-8 was 2.53 µM (inactive); in the assay with A498, 13.2 µM (inactive); with HT-29 it was 3.65 µM (inactive); with NCI-H226 it was 19 µM (inactive); in the assay with SF-539, 4.65 µM (inactive); in the assay on U-251 it was 5.37 µM (inactive). In addition, the GI50 is 5.73 µM (inactive) in the assay with SN12C and 3.72 µM in the assay on HCT-15.
For the molecule `Cc1csc2c(=O)n(COCc3ccccc3)c(=O)[nH]c12`, the GI50 in the assay with SNB-19 was > 100 µM (inactive); in the assay with MOLT-4, > 100 µM (inactive); in the assay on UO-31, 89.5 µM (inactive); with Malme-3M, > 100 µM (inactive); in the assay on HOP-62 it was 59.8 µM (inactive); in the assay on UACC-257, > 100 µM (inactive). The GI50 in the assay with NCI-H460, in the assay with PC-3, in the assay with MDA-MB-435, in the assay with IGROV-1, in the assay with A549 and in the assay with TK-10 was > 100 µM (inactive) in each case. Moreover, the GI50 in the assay on OVCAR-8, in the assay with A498, with HT-29, in the assay on NCI-H226, in the assay with SF-539 and with U-251 was > 100 µM (inactive) throughout. Also, in the assay with SN12C, the GI50 was > 100 µM (inactive).
In the case of `N#CC12CC3=C(N=C1NC1=C(CCc4ccccc41)C2)c1ccccc1CC3` (centres undefined), the GI50 with SNB-19 was 3.95 µM (inactive); in the assay with MOLT-4 it was 1.72 µM (inactive); in the assay on UO-31 it was 3.45 µM (inactive); in the assay on Malme-3M, 1.71 µM (inactive); with HOP-62 it was 5.37 µM (inactive); in the assay on UACC-257 it was 17.6 µM (inactive). Further, the GI50 is 3.06 µM (inactive) in the assay with NCI-H460; 2.12 µM (inactive) in the assay with PC-3; 0.278 µM (active) in the assay on MDA-MB-435; 1.44 µM (inactive) with IGROV-1; 3.32 µM (inactive) in the assay with A549; 4.61 µM (inactive) in the assay on TK-10. Further, the GI50 is 3.24 µM (inactive) with OVCAR-8; 1.8 µM (inactive) in the assay on A498; 0.533 µM (active) with HT-29; 3.73 µM (inactive) in the assay with NCI-H226; 2.53 µM (inactive) in the assay on SF-539; 1.58 µM (inactive) in the assay on U-251. Besides, the GI50 in the assay on SN12C was 5.15 µM (inactive); with HCT-15, 1.76 µM.
Take `S=C1SC(c2ccc(Cl)cc2)(c2ccc(Cl)cc2)c2ccccc21`: the GI50 in the assay with SNB-19 was > 100 µM (inactive); in the assay on MOLT-4, 37.2 µM (inactive); in the assay with UO-31, > 100 µM (inactive); with Malme-3M it was > 100 µM (inactive); in the assay with HOP-62, > 100 µM (inactive); in the assay with UACC-257, 31 µM (inactive). Besides, the GI50 with NCI-H460 is > 100 µM (inactive); with PC-3, 58.6 µM (inactive); with MDA-MB-435 it was 62.7 µM (inactive); in the assay with IGROV-1, > 100 µM (inactive); in the assay with A549, 77.6 µM (inactive); with TK-10 it was > 100 µM (inactive). In addition, the GI50 in the assay with OVCAR-8 is > 100 µM (inactive); with A498, 81.8 µM (inactive); in the assay with HT-29, 28 µM (inactive); in the assay on NCI-H226 it was 51.2 µM (inactive); in the assay with SF-539 it was > 100 µM (inactive); with U-251, > 100 µM (inactive). For the same molecule, the GI50 in the assay with SN12C was > 100 µM (inactive); with HCT-15 it was 65 µM.
As for `COC[C@@H](/N=C/C(C)(C)C)C(C)C`, the GI50 in the assay on SNB-19 was > 100 µM (inactive); in the assay with MOLT-4, > 100 µM (inactive); in the assay with UO-31, > 100 µM (inactive); with Malme-3M it was > 100 µM (inactive); in the assay with HOP-62 it was > 100 µM (inactive); in the assay on UACC-257, 67.3 µM (inactive). Also, the GI50 in the assay on NCI-H460 is > 100 µM (inactive); in the assay on PC-3 it was > 100 µM (inactive); with MDA-MB-435, > 100 µM (inactive); in the assay with IGROV-1, > 100 µM (inactive); in the assay on A549 it was > 100 µM (inactive); in the assay on TK-10 it was 72.1 µM (inactive). In addition, the GI50 in the assay with OVCAR-8, with A498, in the assay with HT-29, with NCI-H226, in the assay on SF-539 and with U-251 was > 100 µM (inactive) each time. For the same molecule, the GI50 is > 100 µM (inactive) with SN12C and over 100 µM in the assay with HCT-15.
